# Values of other authors, collected in US20050271657A1, “Intermittent treatment regime for organ failure” (Australian Stem Cell Centre Ltd., priority 2004, published 2005).
# Experiments:
# [1] = renal transplant patients
# [2] = test system: A II production from angiotensin I (A I)
compound,measurement,setting,value
"CCOC(=O)[C@H](CCc1ccccc1)N[C@@H](C)C(=O)N1CCC[C@H]1C(=O)O [Enalapril, enalapril]",anemia,[1],reversible anemia
same,blockage of A II production from angiotensin I at specific glomerular sites,[2],blockage
